Assay results taken from US20260107957A1, “USE OF AN EMULSIFIER DERIVED FROM RICINOLEIC ACID TO INCREASE THE ABSORPTION OF CALCIUM AND PHOSPHORUS IN THE DIGESTIVE TRACT OF FARM ANIMALS” (priority 2023, published 2026).

Tested on: laying hens
Test: Assessment of shell quality in laying hen farms
Format: in vivo
Settings: egg production
Protocol: In order to assess the effect of the use of the nutritional supplement on the calcium and phosphorus absorption in laying hens, several studies on laying hens from different farms were carried out. The studies comprised the analysis of animals before and after the feed with the formulation containing the nutritional supplement comprising ingredients shown in Table 3.
More specifically, an assessment of the shell quality in laying hens was conducted by collecting the eggs before and after feeding the animals with the formulation containing the nutritional supplement. Hens from farms in the states of Espírito Santo (350,000 hens), São Paulo (2,000,000 hens), Paraná (1,100,000 hens), and Minas Gerais ([…]) were fed with a pair of feed formulas, one without and another one with the nutritional supplement of the present invention.
Laid eggs were collected after feeding the hens with regular feed and later with the feed containing the emulsifier of the present invention. Data obtained from the analysis of the eggs from the farms in Espírito Santo, São Paulo, Paraná, and Minas Gerais are included in Tables 6 to 9 below, the beneficial effects on the shells being emphasized thereof, among them the reduction in cracks in chicken eggs.

## CCCCCC[C@@H](O)C/C=C\CCCCCCCC(=O)[O-].[Na+] [emulsifier derived from ricinoleic acid, Sodium Ricinolate]
  increase of the amount of saleable eggs: up to 5%
Usual loss up to 7%
  eggs produced daily lost by shell problems: below 2%
